Source: patent EP4643856A1, “CARBAZOLE DERIVATIVES USED AS NEUROPROTECTANTS AND IN THE TREATMENT OF DISORDERS WITH REDUCED NAD METABOLISM” (Centre National de la Recherche Scientifique, priority 2024, dated 2025)
“Also recorded” adds a separate entry of the source.

Experiments:
HeLa cells [1] = test: FK866-induced cytotoxicity, viability assay (prestoblue assay); format: cell-based; details: 3.5 nM FK866 in the presence of 6 µM compound, 72 hours
Protocol: (§1) This clearly indicates an activation of the pathways leading to NADH production. • Figure 3 represents the effect of compounds I-a, I-f, I-m, I-n, I-q and the comparative example on the cytotoxicity mediated by NAMPT inhibitor FK866. HeLa cells were seeded in microplates and incubated with 3.5 nM FK866 without (black) or in the presence of 6 µM of I-a and different analogues (grey), as indicated, for 72 hours. A viability assay (prestoblue assay) was then conducted. […] Behavioral assessments were performed on 5-week-old male Sprague-Dawley rats before (basal values) and at days 4, 7, 11 and 14 after the beginning of the drug injections (Compound I-a 50 mg/kg, paclitaxel (PTX) 4 mg/kg, Compound I-a 50 mg/kg + PTX 4 mg/kg). Control animals (Vehicle) received vehicle injections. The results are presented by mean ± standard deviation (n = 6 per group). Tactile nociceptive thresholds were assessed using an electronic von Frey test (J. Ferrier, F. Marchand, D. Balayssac, Assessment of mechanical allodynia in rats using the electronic von frey test, BIO-Protoc., 6 (2016), 10.21769/BioProtoc.1933). Rats were placed individually in plastic compartments on an elevated wire floor and left for habituation for 15 min before each experiment. […] The maximum force applied (expressed in grams) to induce paw withdrawal was recorded automatically.
The compound FK866 is known to be a potent selective inhibitor of the NAMPT enzyme. Administration of FK866 in cultured cells results in depletion of intracellular NAD levels and subsequent cell death. The effect of compound I-a and other compounds of the series on FK866-induced cytotoxicity in HeLa cells was assayed.
HeLa cells were seeded in microplates and incubated with 3.5 nM FK866 without (black) or in the presence of 6 µM of I-a and different analogues (grey), as indicated, for 72 hours. A viability assay (prestoblue assay) was then conducted.

HeLa cells [2] = test: Kinetics of NADH autofluorescence (endogenous NADH production) by confocal microscopy; format: cell-based; details: I-a (5 µM) or I-s (0.5 µM), 25-minute analysis, in comparison with controls
[3] = system: rat model of paclitaxel-induced neuropathy; test: Rat model of paclitaxel-induced neuropathy, electronic von Frey test; format: in vivo; details: days 4, 7, 11 and 14
Protocol: as §1

NAMPT = NAMPT (Homo sapiens, UniProt P43490); test: NAMPT activation in vitro, biochemical assay
Sequence of NAMPT (P43490 whole entry, species assumed): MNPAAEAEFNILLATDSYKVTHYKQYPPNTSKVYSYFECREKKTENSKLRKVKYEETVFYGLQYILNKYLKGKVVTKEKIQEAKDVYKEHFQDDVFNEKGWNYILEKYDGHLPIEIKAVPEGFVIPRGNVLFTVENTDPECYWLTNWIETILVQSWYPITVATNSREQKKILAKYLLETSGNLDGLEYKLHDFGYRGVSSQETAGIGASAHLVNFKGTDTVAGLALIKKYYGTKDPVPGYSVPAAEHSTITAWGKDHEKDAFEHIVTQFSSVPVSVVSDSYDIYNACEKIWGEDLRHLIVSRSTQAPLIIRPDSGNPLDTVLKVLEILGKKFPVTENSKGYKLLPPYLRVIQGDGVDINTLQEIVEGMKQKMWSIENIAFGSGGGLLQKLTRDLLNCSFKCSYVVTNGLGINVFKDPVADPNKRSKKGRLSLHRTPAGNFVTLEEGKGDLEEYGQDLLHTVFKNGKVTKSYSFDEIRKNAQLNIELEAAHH

SMILES	effect on FK866-induced cell death (HeLa cells [1])	also measured
Cc1cc(-n2cccc2)c(C)c2c1[nH]c1ccc(Br)cc12 [I-f]	can relieve the cytotoxicity of the NAMPT inhibitor FK866; also recorded: reduced cell death	–
CCc1cccc2c1[nH]c1c(C)cc(-n3cccc3)c(C)c12 [I-q]	significantly reduced cell death	–
Cc1cc(-n2cccc2)c(C)c2c1[nH]c1ccc(O)cc12 [I-m]	no detectable protective effect	–
Cc1cc(-n2cccc2)c(C)c2c1[nH]c1ccc(Cl)cc12 [I-a, 6-chloro-1,4-dimethyl-3-pyrrol-1-yl-9H-carbazole]	significantly reduced cell death	NADH production (NADH autofluorescence) (HeLa cells [2]): dose-dependent increase in NADH production; tactile sensitivity (tactile nociceptive thresholds, von Frey) ([3]; Compound I-a 50 mg/kg + PTX 4 mg/kg, force in grams, n = 6 per group): prevents the hypersensitivity induced by PTX; NAMPT activation (NAMPT): activates NAMPT in vitro
CC(=O)O[C@H]1C(=O)[C@@]2(C)[C@H]([C@H](OC(=O)c3ccccc3)[C@]3(O)C[C@H](OC(=O)[C@H](O)[C@@H](NC(=O)c4ccccc4)c4ccccc4)C(C)=C1C3(C)C)[C@]1(OC(C)=O)CO[C@@H]1C[C@@H]2O [PTX, paclitaxel, reference compound]	–	tactile sensitivity (tactile nociceptive thresholds, von Frey) ([3]; PTX 4 mg/kg alone, compared with basal value at day 0): progressively induce a tactile hypersensitivity; also recorded: developed progressively tactile hypersensitivity
COc1cccc(NCC(F)Cn2c3ccc(Cl)cc3c3c(C)c(-n4cccc4)cc(C)c32)c1 (centres unmarked) [Comparative example, N-[3-(6-chloro-1,4-dimethyl-3-pyrrol-1-yl-carbazol-9-yl)-2-fluoro-propyl]-3-methoxy-aniline, reference compound]	does not reduce FK866-induced cell death	–
Cc1cc(-n2ccc(CO)c2)c(C)c2c1[nH]c1ccc(Cl)cc12 [I-s]	–	NADH production (NADH autofluorescence) (HeLa cells [2]): dose-dependent increase in NADH production
CCOC(=O)Oc1ccc2[nH]c3c(C)cc(-n4cccc4)c(C)c3c2c1 [I-n]	significantly reduced cell death	–
